Source: ChEMBL document CHEMBL1909046, “DrugMatrix in vitro pharmacology data”

Experiments:
B2 bradykinin receptor = target: T1, B2 bradykinin receptor (Homo sapiens, UniProt P30411); type: cell membranes, Membrane; conditions: chem-1; note: in other assays of this panel Not Active means under 50% inhibition at 10 µM
T1 sequence (P30411 whole entry): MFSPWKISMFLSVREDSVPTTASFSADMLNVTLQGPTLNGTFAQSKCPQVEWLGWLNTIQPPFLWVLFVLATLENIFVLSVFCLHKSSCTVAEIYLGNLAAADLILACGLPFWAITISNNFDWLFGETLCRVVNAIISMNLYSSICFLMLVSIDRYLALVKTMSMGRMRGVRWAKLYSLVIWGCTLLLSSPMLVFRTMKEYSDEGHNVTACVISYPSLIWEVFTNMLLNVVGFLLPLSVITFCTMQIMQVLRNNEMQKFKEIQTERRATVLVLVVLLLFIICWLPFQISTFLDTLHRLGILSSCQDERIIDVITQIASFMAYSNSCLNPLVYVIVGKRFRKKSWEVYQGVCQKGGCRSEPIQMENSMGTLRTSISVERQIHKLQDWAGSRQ

Calcitonin receptor = target: T2, Calcitonin receptor (Homo sapiens, UniProt P30988); type: cell membranes, Membrane; conditions: t47d; note: in other assays of this panel Not Active means under 50% inhibition at 10 µM
T2 sequence (P30988 whole entry): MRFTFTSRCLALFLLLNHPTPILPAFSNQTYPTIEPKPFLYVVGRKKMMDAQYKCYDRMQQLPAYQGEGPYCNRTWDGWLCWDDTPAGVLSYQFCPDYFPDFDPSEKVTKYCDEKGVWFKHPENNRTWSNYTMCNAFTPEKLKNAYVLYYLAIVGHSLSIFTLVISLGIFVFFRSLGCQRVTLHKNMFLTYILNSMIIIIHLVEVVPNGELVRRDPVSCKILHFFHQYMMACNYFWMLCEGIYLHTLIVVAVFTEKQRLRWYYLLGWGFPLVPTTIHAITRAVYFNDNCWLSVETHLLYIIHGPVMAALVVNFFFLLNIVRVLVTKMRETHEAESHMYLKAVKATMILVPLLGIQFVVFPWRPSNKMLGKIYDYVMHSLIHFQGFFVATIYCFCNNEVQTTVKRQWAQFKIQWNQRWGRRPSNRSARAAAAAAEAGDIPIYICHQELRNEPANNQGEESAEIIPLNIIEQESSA

[1] = DRUGMATRIX: Calcium Channel Type L, Phenylalkylamine radioligand binding (ligand: [3H] (-)-Desmethoxyverapamil (D-888)); type: cell membranes, Rattus norvegicus, Wistar, Brain, Membrane; conditions: Not Active = under 50% inhibition at 10 µM
[2] = target: T3, C-X-C chemokine receptor type 1 (Homo sapiens, UniProt P25024); note: in other assays of this panel Not Active means under 50% inhibition at 10 µM
T3 sequence (P25024 whole entry): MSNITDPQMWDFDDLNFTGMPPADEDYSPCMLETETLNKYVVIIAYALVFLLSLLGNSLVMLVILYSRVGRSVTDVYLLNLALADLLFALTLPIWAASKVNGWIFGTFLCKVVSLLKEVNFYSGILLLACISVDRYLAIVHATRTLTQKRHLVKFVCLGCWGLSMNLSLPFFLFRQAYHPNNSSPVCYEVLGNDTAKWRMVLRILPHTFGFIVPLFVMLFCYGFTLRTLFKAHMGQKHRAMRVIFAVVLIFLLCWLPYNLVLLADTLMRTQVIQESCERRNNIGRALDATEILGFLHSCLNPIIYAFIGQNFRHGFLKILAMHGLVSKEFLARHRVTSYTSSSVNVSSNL

[3] = DRUGMATRIX: GABAA, Muscimol, Central radioligand binding (ligand: [3H] Muscimol); type: cell membranes, Rattus norvegicus, Wistar, Brain, Membrane; conditions: Not Active = under 50% inhibition at 10 µM
Nitric oxide synthase 1 = Nitric oxide synthase 1 (Rattus norvegicus, UniProt P29476); type: tissue-based, Cerebellum; note: in other assays of this panel Not Active means under 50% inhibition at 10 µM
Chain of Nitric oxide synthase 1 (P29476 whole entry): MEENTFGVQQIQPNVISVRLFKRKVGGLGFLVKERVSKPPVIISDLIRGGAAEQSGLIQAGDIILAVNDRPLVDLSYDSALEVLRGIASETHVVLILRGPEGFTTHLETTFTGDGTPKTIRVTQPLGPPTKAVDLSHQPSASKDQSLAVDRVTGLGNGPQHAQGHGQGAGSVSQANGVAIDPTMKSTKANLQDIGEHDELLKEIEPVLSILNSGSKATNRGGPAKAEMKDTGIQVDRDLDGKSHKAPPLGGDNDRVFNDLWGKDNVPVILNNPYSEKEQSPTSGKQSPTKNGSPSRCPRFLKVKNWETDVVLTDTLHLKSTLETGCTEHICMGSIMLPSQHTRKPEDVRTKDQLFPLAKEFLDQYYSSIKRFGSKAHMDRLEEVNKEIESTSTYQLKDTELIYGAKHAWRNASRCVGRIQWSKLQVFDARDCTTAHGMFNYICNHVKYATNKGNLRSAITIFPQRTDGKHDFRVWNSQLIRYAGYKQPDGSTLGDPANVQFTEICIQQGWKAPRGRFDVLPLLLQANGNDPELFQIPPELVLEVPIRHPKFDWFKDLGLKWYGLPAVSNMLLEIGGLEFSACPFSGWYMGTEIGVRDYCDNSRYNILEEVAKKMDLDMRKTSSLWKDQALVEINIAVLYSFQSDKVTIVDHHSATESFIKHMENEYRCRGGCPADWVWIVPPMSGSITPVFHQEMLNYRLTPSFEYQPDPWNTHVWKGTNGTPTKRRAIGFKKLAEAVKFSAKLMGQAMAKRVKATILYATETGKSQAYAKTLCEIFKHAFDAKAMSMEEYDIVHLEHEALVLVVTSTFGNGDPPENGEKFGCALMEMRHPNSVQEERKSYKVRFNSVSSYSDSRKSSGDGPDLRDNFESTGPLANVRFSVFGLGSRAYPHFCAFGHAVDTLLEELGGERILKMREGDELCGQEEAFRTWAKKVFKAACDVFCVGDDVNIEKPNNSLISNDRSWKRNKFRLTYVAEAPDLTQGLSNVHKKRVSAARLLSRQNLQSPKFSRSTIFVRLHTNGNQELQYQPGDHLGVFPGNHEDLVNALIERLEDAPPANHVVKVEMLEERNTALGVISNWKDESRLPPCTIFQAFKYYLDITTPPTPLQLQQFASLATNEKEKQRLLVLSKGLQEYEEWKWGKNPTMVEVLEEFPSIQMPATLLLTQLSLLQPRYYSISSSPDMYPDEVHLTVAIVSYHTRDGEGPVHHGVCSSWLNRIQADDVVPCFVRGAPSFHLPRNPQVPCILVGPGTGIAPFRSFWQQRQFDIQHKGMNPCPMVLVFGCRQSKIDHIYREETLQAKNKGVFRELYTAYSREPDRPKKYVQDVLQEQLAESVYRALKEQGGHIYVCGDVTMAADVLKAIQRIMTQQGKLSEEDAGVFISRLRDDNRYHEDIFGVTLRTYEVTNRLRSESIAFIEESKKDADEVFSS

[4] = target: Kappa-type opioid receptor (Homo sapiens, UniProt P41145); experiment: DRUGMATRIX: Opiate kappa (OP2, KOP) radioligand binding (ligand: [3H] Diprenorphine); type: cell membranes, HEK293, Membrane; conditions: hek293; Not Active = under 50% inhibition at 10 µM
Chain of Kappa-type opioid receptor (P41145 whole entry): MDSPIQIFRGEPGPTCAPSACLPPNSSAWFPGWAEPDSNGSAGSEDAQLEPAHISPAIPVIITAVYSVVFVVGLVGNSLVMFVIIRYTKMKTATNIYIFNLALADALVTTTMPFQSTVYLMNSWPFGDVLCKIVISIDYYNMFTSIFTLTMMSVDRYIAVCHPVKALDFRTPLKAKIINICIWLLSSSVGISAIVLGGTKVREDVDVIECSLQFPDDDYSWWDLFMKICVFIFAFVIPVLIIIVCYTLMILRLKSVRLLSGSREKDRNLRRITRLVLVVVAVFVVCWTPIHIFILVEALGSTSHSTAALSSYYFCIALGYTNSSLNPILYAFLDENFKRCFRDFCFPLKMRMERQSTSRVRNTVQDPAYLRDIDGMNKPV

Cytochrome P450 1A2 = target: T4, Cytochrome P450 1A2 (Homo sapiens, UniProt P05177); conditions: bti-tn-5b1-4; note: in other assays of this panel Not Active means under 50% inhibition at 10 µM
T4 sequence (P05177 whole entry): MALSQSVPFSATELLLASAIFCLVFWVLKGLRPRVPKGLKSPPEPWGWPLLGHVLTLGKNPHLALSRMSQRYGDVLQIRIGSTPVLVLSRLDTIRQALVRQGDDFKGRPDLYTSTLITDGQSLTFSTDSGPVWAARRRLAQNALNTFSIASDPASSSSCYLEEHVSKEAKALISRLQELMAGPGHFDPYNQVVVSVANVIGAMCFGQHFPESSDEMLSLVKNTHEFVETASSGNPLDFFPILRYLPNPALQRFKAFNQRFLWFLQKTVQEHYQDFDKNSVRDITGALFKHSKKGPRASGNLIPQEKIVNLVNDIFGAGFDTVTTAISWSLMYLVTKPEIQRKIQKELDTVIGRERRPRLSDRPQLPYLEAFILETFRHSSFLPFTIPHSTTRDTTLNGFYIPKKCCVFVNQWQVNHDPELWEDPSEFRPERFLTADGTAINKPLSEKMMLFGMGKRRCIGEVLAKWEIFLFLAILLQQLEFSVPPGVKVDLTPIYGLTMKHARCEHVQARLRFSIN

CC(C)(CO)C(O)C(=O)NCCCO (stereo not given) [PANTHENOL]
Not Active: IC50 (B2 bradykinin receptor) | IC50 (Calcitonin receptor) | IC50 [1] | Ki [1] | IC50 [2] | IC50 [3] | Ki [3] | IC50 (Nitric oxide synthase 1) | IC50 [4] | IC50 (Cytochrome P450 1A2) | Ki (Cytochrome P450 1A2)

CCCCC1C(=O)N(c2ccccc2)N(c2ccccc2)C1=O [PHENYLBUTAZONE]
Not Active: IC50 (B2 bradykinin receptor) | IC50 (Calcitonin receptor) | IC50 [1] | Ki [1] | IC50 [2] | IC50 [3] | Ki [3] | IC50 (Nitric oxide synthase 1) | IC50 [4] | IC50 (Cytochrome P450 1A2) | Ki (Cytochrome P450 1A2)

Cc1cccc(Nc2cc(Cl)nc(SCC(=O)O)n2)c1C [PIRINIXIC ACID]
Not Active: IC50 (B2 bradykinin receptor) | IC50 (Calcitonin receptor) | IC50 [1] | Ki [1] | IC50 [2] | IC50 [3] | Ki [3] | IC50 (Nitric oxide synthase 1) | IC50 [4] | IC50 (Cytochrome P450 1A2) | Ki (Cytochrome P450 1A2)

CC[C@H](C)C(=O)O[C@H]1C[C@H](O)C=C2C=C[C@H](C)[C@H](CC[C@@H](O)C[C@@H](O)CC(=O)O)[C@H]21 [PRAVASTATIN]
Not Active: IC50 (B2 bradykinin receptor) | IC50 (Calcitonin receptor) | IC50 [1] | Ki [1] | IC50 [2] | IC50 [3] | Ki [3] | IC50 (Nitric oxide synthase 1) | IC50 [4] | IC50 (Cytochrome P450 1A2) | Ki (Cytochrome P450 1A2)

CC(C)(Sc1cc(C(C)(C)C)c(O)c(C(C)(C)C)c1)Sc1cc(C(C)(C)C)c(O)c(C(C)(C)C)c1 [PROBUCOL]
Not Active: IC50 (B2 bradykinin receptor) | IC50 (Calcitonin receptor) | IC50 [1] | Ki [1] | IC50 [2] | IC50 [3] | Ki [3] | IC50 (Nitric oxide synthase 1) | IC50 [4] | IC50 (Cytochrome P450 1A2) | Ki (Cytochrome P450 1A2)
